Laboratory results as given in publication PMC9820814, “In Vitro Reconstitution of the Melanin Pathway’s Catalytic Activities Using Tyrosinase Nanoparticles” (International Journal of Molecular Sciences, 2022).

Experiments:
TYR = target: T1, TYR (Homo sapiens, UniProt P14679); test: diphenol oxidase activity, dopachrome absorbance at […] nm, Michaelis-Menten fit; type: biochemical; conditions: free enzyme; 10 min incubation; 10 mM NaPO4 pH 7.4; 37 °C; unit printed mM^−1 (sic, mM meant)
T1 construct: recombinant truncated intra-melanosomal domain, C-terminal part with transmembrane helix removed, His-tagged; baculovirus / T. ni larvae
T1 sequence (P14679 19-469 limits assumed): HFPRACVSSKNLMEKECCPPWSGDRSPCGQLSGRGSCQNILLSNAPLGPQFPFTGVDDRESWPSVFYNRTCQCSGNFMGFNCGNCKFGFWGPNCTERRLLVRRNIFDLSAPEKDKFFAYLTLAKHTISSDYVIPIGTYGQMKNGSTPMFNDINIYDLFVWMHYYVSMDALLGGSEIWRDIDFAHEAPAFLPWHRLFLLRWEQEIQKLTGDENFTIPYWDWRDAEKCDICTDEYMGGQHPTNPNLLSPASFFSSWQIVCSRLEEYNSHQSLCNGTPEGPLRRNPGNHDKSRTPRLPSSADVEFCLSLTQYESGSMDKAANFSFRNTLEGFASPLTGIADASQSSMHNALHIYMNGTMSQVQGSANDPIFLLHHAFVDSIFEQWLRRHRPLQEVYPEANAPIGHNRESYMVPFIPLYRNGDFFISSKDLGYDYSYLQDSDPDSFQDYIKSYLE

TYRP1 = target: T2, TYRP1 (Homo sapiens, UniProt P17643); test: DHICA oxidation, IQCA absorbance at […] nm; type: biochemical; conditions: 1.5 mM DHICA; pH 7.4; 37 °C; 24 h; no MBTH
T2 construct: recombinant truncated intra-melanosomal domain, C-terminal part with transmembrane helix removed, purified on His-Trap; baculovirus / T. ni larvae; ~59 kDa
T2 sequence (P17643 25-477 limits assumed): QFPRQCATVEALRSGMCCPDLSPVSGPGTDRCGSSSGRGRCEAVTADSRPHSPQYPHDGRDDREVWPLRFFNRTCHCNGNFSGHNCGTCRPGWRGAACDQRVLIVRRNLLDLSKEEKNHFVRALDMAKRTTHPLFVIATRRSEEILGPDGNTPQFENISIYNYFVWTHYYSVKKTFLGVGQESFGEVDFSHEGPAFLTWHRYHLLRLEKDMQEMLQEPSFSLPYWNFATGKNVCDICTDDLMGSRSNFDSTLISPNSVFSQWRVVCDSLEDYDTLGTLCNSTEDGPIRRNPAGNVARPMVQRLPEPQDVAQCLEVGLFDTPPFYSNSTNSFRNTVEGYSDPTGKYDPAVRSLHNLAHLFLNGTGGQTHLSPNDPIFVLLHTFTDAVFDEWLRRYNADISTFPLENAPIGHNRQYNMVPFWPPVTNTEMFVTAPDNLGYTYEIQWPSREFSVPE

Structure (SMILES)	Km (mM^-1) / Tyr (TYR) [mM⁻¹]	DHICA oxidation, IQCA absorbance at 560 nm (TYRP1)
N[C@@H](Cc1ccc(O)c(O)c1)C(=O)O [L-DOPA]	0.241 ± 0.069	
O=C(O)c1cc2cc(O)c(O)cc2[nH]1 [DHICA]		the spectrum of the reaction shows the formation of a peak corresponding to a new product
